Source: patent US4912119A, “Imidazolylguanidine derivatives and compositions containing these compounds” (Heumann Pharma GmBH & Co., priority 1986, dated 1990)
Counter-ions that a name gives are not always drawn.

How the values were obtained:
histamine-H2 receptors = biological target: T1, histamine-H2 receptors (Cavia porcellus, UniProt P47747); test: H2-agonistic activity, isolated guinea-pig atrium (method of van Rossum, cumulative dose-response curves); assay type: biochemical; settings: read-out: pD2 -value (Atrium) (converted)
T1 construct: determined on isolated atrium and ileum of guinea-pig; from tissue; host or cells: isolated guinea-pig atrium
T1 sequence (P47747 whole entry): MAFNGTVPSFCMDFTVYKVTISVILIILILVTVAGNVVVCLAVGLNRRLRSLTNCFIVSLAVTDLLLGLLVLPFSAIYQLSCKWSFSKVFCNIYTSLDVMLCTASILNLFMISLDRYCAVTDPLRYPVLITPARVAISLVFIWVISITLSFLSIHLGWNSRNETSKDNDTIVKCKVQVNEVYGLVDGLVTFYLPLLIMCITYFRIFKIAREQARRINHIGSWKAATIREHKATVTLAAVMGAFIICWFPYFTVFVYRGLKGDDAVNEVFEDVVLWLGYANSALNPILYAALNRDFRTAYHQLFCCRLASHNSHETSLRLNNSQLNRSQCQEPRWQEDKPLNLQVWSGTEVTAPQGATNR
Source text: (§1) The compounds according to this invention are distinguished by a novel, hitherto unknown and undescribed pharmacological overall activity. The new class of structure according to this invention has both a H1 -antagonistic active component and an H2 -agonistic component. These manifest the pharmacological results shown below. One recognized method of determining the H1 -antagonistic activity is the determination of the pA2 -values in vitro (O. Arunlakshana and H. O. Schild, (1959), "Some Quantitative Uses of Drug Antagonists", Br. J. Pharmac. Chemother, 14, 48-58). To determine the H2 -agonistic activity (pD2 -values), the method of J. M. van Rossum, (1963) is employed, described in "Cumulative Dose-Response Curves II. Technique for the Making of Dose-Response Curves in Isolated Organs and the Evaluation of Drug Parameters", Arch. Intern. Pharmacodyn. Therap. 143, 299-307. |(determined on isolated atrium and ileum of guinea-pig)

histamine H1 receptor = biological target: T2, histamine H1 receptor (Cavia porcellus, UniProt P31389); test: H1-antagonistic activity in vitro, isolated guinea-pig ileum (method of Arunlakshana and Schild); assay type: biochemical; settings: for Kb: read-out: pA2 -value (Ileum) (converted)
T2 construct: determined on isolated atrium and ileum of guinea-pig; from tissue; host or cells: isolated guinea-pig ileum
T2 sequence (P31389 whole entry): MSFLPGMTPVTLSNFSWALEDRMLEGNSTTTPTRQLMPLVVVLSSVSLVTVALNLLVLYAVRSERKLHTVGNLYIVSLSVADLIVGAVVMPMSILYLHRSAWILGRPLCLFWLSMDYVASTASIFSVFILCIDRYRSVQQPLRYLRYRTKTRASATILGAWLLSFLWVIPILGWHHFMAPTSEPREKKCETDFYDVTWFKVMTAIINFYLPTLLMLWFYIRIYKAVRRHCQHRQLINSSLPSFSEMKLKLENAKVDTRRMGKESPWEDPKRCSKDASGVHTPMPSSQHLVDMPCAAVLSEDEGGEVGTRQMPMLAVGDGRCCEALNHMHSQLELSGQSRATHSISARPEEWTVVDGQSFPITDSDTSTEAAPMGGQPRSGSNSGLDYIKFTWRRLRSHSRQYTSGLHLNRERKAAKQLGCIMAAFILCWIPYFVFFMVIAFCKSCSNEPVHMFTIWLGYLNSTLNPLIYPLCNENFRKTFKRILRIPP
Source text: as §1

Structure (SMILES) | EC50 (histamine-H2 receptors) | Kb (histamine H1 receptor) | pA2 -value (Ileum) (histamine H1 receptor)
N=C(NCCCc1c[nH]cn1)NCCC(c1ccccn1)c1ccc(Cl)cc1Cl (centres unmarked) [Example 16, N^1-[3-(2,4-Dichlorophenyl)-3-(pyridin-2-yl)propyl]-N^2-[3-(1H-imidazol-4-yl)-propyl]-guanidine] | 13.8 nM | 112 nM | –
N=C(NCCCc1c[nH]cn1)NCCC(c1cc(F)cc(F)c1)c1ccccn1 (centres unmarked) [Example 18, N^1-[3-(3,5-Difluorophenyl)-3-(pyridin-2-yl)propyl]-N^2-[3-(1H-imidazol-4-yl)propyl]-guanidine] | 8.91 nM | 282 nM | –
N=C(NCCCc1c[nH]cn1)NCCN(Cc1cccs1)c1ccccn1 [Example 4, N^1-[3-(1H-Imidazol-4-yl)propyl]-N^2 [2-[N-(pyridin-2-yl)-N-(thiophen-2-yl-methyl)amino]ethyl]-guanidine hydriodide] | 437 nM | 9.12 nM | –
CC(CCNC(=N)NCCCc1c[nH]cn1)(c1ccccc1)c1ccccc1 [Example 8, N^1-[3-(1H-Imidazol-4-yl)propyl]-N^2-(3,3-diphenylbutyl)-guanidine hydrochloride] | 123 nM | 37.2 nM | –
N=C(NCCCc1c[nH]cn1)NCCCN(Cc1ccc(Cl)cc1)c1ccccn1 [Example 3, N^1-[3-(1H-Imidazol-4-yl)propyl]-N^2-[3-[N-(4-chlorobenzyl)-N-(pyridin-2-yl)amino]propyl]-guanidine hydriodide] | 2140 nM | 2.51 nM | –
N=C(NCCCCc1ccccn1)NCCCc1c[nH]cn1 [Example 2, N^1-[3-(1H-Imidazol-4-yl)propyl]-N^2-[4-(pyridin-2-yl)butyl]-guanidine hydriodide] | 112 nM | 309 nM | –

Continued, values first:

EC50 (histamine-H2 receptors) | Kb (histamine H1 receptor) | pA2 -value (Ileum) (histamine H1 receptor) | Structure (SMILES)
11.5 nM | – | 7.05 | NC(=NCCCc1c[nH]cn1)NCCC(c1cccc(Cl)c1)c1ccccn1 (centres unmarked) [Example 20, N^1-[3-(3-Chlorophenyl)-3-(pyridin-2-yl)propyl]-N^2-[3-(1H-imidazol-4-yl)propyl]-guanidine]
7.59 nM | – | 7.07 | NC(=NCCCc1c[nH]cn1)NCCC(c1ccc(F)c(F)c1)c1ccccn1 (centres unmarked) [Example 17, N^1-[3-(3,4-Difluorophenyl)-3-(pyridin-2-yl)propyl]-N^2-[3-(1H-imidazol-4-yl)propyl]-guanidine]
8.13 nM | – | 6.71 | NC(=NCCCc1c[nH]cn1)NCCC(c1ccc(F)cc1)c1cccnc1 (centres unmarked) [Example 24, N^1-[3-(4-Fluorophenyl)-3-(pyridin-3-yl)propyl]-N^2-[3-(1H-imidazol-4-yl)-propyl]-guanidine]
6.31 nM | 115 nM | – | N=C(NCCCc1c[nH]cn1)NCCC(c1ccc(Cl)c(Cl)c1)c1ccccn1 (centres unmarked) [Example 14, N^1-[3-(3,4-Dichlorophenyl)-3-(pyridin-2-yl)propyl]-N^2-[3-(1H-imidazol-4-yl)propyl]-guanidine]
